Experimental data: patent US20250302990A1, “ENHANCING NON-VIRAL DNA DELIVERY AND EXPRESSION” (Spark Therapeutics, Inc., priority 2022, published 2025)

Columns and labels:
Wild type mice = assay: Survival after hFIX DNA-LNP dosing, with or without oral JAK inhibitors (Example 3); type: in vivo, mouse; details: 30 minutes prior to and days 1, 2, 3 post 2.5 mpk hFIX DNA-LNP (bCKK-E12 LNP), followed out to 30 days, vs untreated
Protocol: FIG. 6 illustrates survival of WT mice dosed systemically with 2.5 mpk (50 μg) of human factor IX (hFIX) transgene-encoding plasmid DNA encapsulated in lipid nanoparticles; and either untreated or treated with ruxolitinib or baricitinib orally 30 minutes prior to, and on days 1, 2, and 3 post systemic dosing with hFIX transgene encoding plasmid DNA encapsulated in lipid nanoparticles.
Wild type mice were untreated, or treated (n=5 per group) with JAK inhibitors ruxolitinib or baricitinib orally 30 minutes prior to, and days 1, 2, and 3 post systemic dosing with 2.5 mpk (50 μg) of human factor IX (hFIX) transgene-encoding plasmid DNA encapsulated in lipid nanoparticles (DNA-LNP). The LNP used in the study was formulated with bCKK-E12. Survival of mice in each group was followed out to 30 days (FIG. 6).

Wild type C57BL/6 mice = assay: Transgenic hFIX protein in blood plasma by ELISA one week post-DNA-LNP, anti-IFNAR and/or baricitinib (Example 4); type: in vivo, mouse; details: 2.5 mpk hFIX DNA-LNP (bCKK-E12) IV; anti-IFNAR 15 mpk IP 3 hours prior; baricitinib oral 90 minutes prior and daily days 1-6; one week post-dosing
Protocol: FIG. 7 illustrates FIX protein levels in blood plasma of mice not treated; or treated orally with baricitinib (“Bar”) 90 minutes prior to DNA-LNP dosing, and then daily on days 1-6 post-DNA-LNP dosing. Transgenic hFIX protein in blood plasma of surviving mice was measured by ELISA one-week post-DNA-LNP dosing.
Wild type C57BL/6 mice were untreated, or treated (n=5 per group) once IP with 15 mpk anti-mouse IFNAR blocking antibody (“anti-IFNAR”; clone MAR1-5A3, described in Dunn et al., Nat Immunol. 2005 July; 6(7):722-9) 3 hours prior to systemically (IV tail injections) dosing with 2.5 mpk (50 μg) of human factor IX (hFIX) transgene-encoding plasmid DNA encapsulated in lipid nanoparticles (DNA-LNP). The LNP used in the study was formulated with bCKK-E12. Mice were treated or not treated with the oral JAK inhibitor baricitinib (“Bar”) 90 minutes prior to DNA-LNP dosing, and then daily on days 1-6 post-DNA-LNP dosing. Transgenic hFIX protein in blood plasma of surviving mice was measured by ELISA one-week post-DNA-LNP dosing (FIG. 7).

N#CC[C@H](C1CCCC1)n1cc(-c2[nH]cnc3nccc2-3)cn1 [Ruxolitinib]
survival of mice dosed with DNA-LNP (Wild type mice): dramatically improved survival

Baricitinib
survival of mice dosed with DNA-LNP (Wild type mice): dramatically improved survival | DNA-LNP transgene efficacy (hFIX protein in blood plasma, ELISA) (Wild type C57BL/6 mice): did not boost transgene efficacy
